According to PubChem BioAssay AID330 (DTP/NCI, 2004):
“And” between values parts separate entries of the source, which are not always exact repeats. Identical values can stand only once. Toxic doses and inconclusive results are not listed. Rule for the calls: active = survival T/C of 150% or more; inactive = T/C below 125% in these data.

System: P388 leukemia ip, CD2F1 mice, survival T/C
Test: NCI In Vivo Anticancer Drug Screen. Data for tumor model P388 Leukemia (intraperitoneal) in CD2F1 (CDF1) mice
Settings: endpoint: median survival time, higher = longer survival
Method in brief: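 Mice carrying the transplanted tumor received test compound or vehicle. Survival was recorded in each group, and the value is the treated-group measurement divided by that of the vehicle-treated control group.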

[1] = dose: 12.5 mg/kg/injection, schedule: Q01DX009 (ip), vehicle: saline with Tween-80
[2] = dose: 50.0 mg/kg/injection, schedule: Q01DX005 (ip), vehicle: saline with Tween-80
[3] = dose: 60.0 mg/kg/injection, schedule: Q01DX005 (ip), vehicle: saline with Tween-80
[4] = dose: 120.0 mg/kg/injection, schedule: Q01DX005 (ip), vehicle: saline with Tween-80
[5] = dose: 240.0 mg/kg/injection, schedule: Q01DX005 (ip), vehicle: saline with Tween-80

Measured: T/C

CCOC(=O)/C=C(\Br)C(=O)OCC
inactive: dose: 3.15 mg/kg/injection, schedule: Q01DX009 (ip), vehicle: saline with Tween-80 108 % of control | dose: 6.25 mg/kg/injection, schedule: Q01DX009 (ip), vehicle: saline with Tween-80 99 % of control | [1] 119 % of control

O=C(NCCCCCCCNC(=O)C12CC3CC(CC(C3)C1)C2)C12CC3CC(CC(C3)C1)C2
inactive: dose: 12.5 mg/kg/injection, schedule: Q01DX005 (ip), vehicle: saline with Tween-80 93 % of control | dose: 25.0 mg/kg/injection, schedule: Q01DX005 (ip), vehicle: saline with Tween-80 89 % of control | [2] 88 % of control and 89 % of control

ClC1(Cl)C2CCCCC21 (configuration not stated)
inactive: dose: 50.0 mg/kg/injection, schedule: Q01DX009 (ip), vehicle: saline with Tween-80 100 % of control | dose: 100.0 mg/kg/injection, schedule: Q01DX009 (ip), vehicle: saline with Tween-80 90 % of control

CC/C(=C\c1ccccc1)[N+](=O)[O-]
inactive: [1] 103 % of control | dose: 25.0 mg/kg/injection, schedule: Q01DX009 (ip), vehicle: saline with Tween-80 123 % of control

CC(C)CC1C(=O)OC(C(C)C)C(=O)N(C)C(CC(C)C)C(=O)OC(C(C)C)C(=O)N(C)C(CC(C)C)C(=O)OC(C(C)C)C(=O)N(C)C(CC(C)C)C(=O)OC(C(C)C)C(=O)N1C (configuration not stated)
inactive: dose: 1.0 mg/kg/injection, schedule: Q01DX009 (ip), vehicle: saline with Tween-80 99 % of control | dose: 2.0 mg/kg/injection, schedule: Q01DX009 (ip), vehicle: saline with Tween-80 90 % of control | dose: 4.0 mg/kg/injection, schedule: Q01DX009 (ip), vehicle: saline with Tween-80 101 % of control | dose: 8.0 mg/kg/injection, schedule: Q01DX009 (ip), vehicle: saline with Tween-80 101 % of control | dose: 16.0 mg/kg/injection, schedule: Q01DX009 (ip), vehicle: saline with Tween-80 96 % of control

O=C(Nc1ccccc1)NC1CCCCCC1
inactive: dose: 50.0 mg/kg/injection, schedule: Q01DX009 (ip), vehicle: saline 93 % of control | dose: 100.0 mg/kg/injection, schedule: Q01DX009 (ip), vehicle: saline 98 % of control | dose: 200.0 mg/kg/injection, schedule: Q01DX009 (ip), vehicle: saline 87 % of control

CC(=O)c1sc(SSc2sc(C(C)=O)c(C)c2[N+](=O)[O-])c([N+](=O)[O-])c1C
inactive: dose: 100.0 mg/kg/injection, schedule: Q04DX002 (ip), vehicle: Klucel (hydroxypropylcellulose) (HPC) 91 % of control | dose: 200.0 mg/kg/injection, schedule: Q04DX002 (ip), vehicle: Klucel (hydroxypropylcellulose) (HPC) 89 % of control | dose: 400.0 mg/kg/injection, schedule: Q04DX002 (ip), vehicle: Klucel (hydroxypropylcellulose) (HPC) 86 % of control

CCOC(=O)Nc1ccc(C2SCCN2C(=O)Nc2ccc(Cl)cc2)cc1 (configuration not stated)
inactive: [3] 100 % of control | [4] 91 % of control | [5] 91 % of control

CC1(C)N=C(N)N=C(N)N1c1ccc(OCC(=O)N2CCOCC2)cc1
inactive: dose: 50.0 mg/kg/injection, schedule: Q04DX003 (ip), vehicle: saline 100 % of control | dose: 66.0 mg/kg/injection, schedule: Q01DX009 (ip), vehicle: saline sonified 110 % of control | dose: 100.0 mg/kg/injection, schedule: Q01DX009 (ip), vehicle: saline sonified 120 % of control | dose: 100.0 mg/kg/injection, schedule: Q04DX003 (ip), vehicle: saline 95 % of control

Nc1ncnc2c1c(-c1ccccc1)cn2-c1ccc(Br)cc1
inactive: [3] 108 % of control | [4] 100 % of control | [5] 96 % of control

COc1ccc2c(N=[N+]=[N-])cc(C)nc2c1
inactive: dose: 30.0 mg/kg/injection, schedule: Q01DX005 (ip), vehicle: saline with Tween-80 97 % of control | [3] 100 % of control and 91 % of control

COc1cc2c(cc1OC)C1CC(CC(N)=O)(C(N)=O)CCN1CC2 (configuration not stated)
inactive: [2] 97 % of control | dose: 100.0 mg/kg/injection, schedule: Q01DX005 (ip), vehicle: saline with Tween-80 94 % of control | dose: 200.0 mg/kg/injection, schedule: Q01DX005 (ip), vehicle: saline with Tween-80 90 % of control

CN1C(=O)C(=O)N(Cc2ccco2)C1=O
inactive: dose: 50.0 mg/kg/injection, schedule: Q01DX009 (ip), vehicle: Klucel (hydroxypropylcellulose) (HPC) 97 % of control | dose: 100.0 mg/kg/injection, schedule: Q01DX009 (ip), vehicle: Klucel (hydroxypropylcellulose) (HPC) 100 % of control | dose: 200.0 mg/kg/injection, schedule: Q01DX009 (ip), vehicle: Klucel (hydroxypropylcellulose) (HPC) 101 % of control

Cc1nc(C(Cl)(Cl)Cl)[nH]c(=O)c1SCCO
inactive: dose: 50.0 mg/kg/injection, schedule: Q01DX005 (ip), vehicle: distilled water + alcohol 101 % of control and 108 % of control | dose: 100.0 mg/kg/injection, schedule: Q01DX005 (ip), vehicle: distilled water + alcohol 105 % of control and 120 % of control | dose: 200.0 mg/kg/injection, schedule: Q01DX005 (ip), vehicle: distilled water + alcohol 114 % of control
